Laboratory results from ChEMBL document CHEMBL4017541, “Membrane-Active Hydantoin Derivatives as Antibiotic Agents” (J Med Chem, 2017).
Converted amounts (≈) assume the structure as drawn.

Columns and labels:
[1] = system: Pseudomonas aeruginosa; test: Antimicrobial activity against Pseudomonas aeruginosa ATCC 27853 after 16 hrs; type: functional; details: ATCC 27853, 16 h
[2] = system: Klebsiella pneumoniae; test: Antimicrobial activity against Klebsiella pneumoniae ATCC 13383 after 16 hrs; type: functional; details: ATCC 13383, 16 h
[3] = system: Enterococcus faecalis; test: Antimicrobial activity against vancomycin resistant Enterococcus faecalis ATCC 700802 after 16 hrs; type: functional; details: ATCC 700802, 16 h
[4] = system: Escherichia coli; test: Antimicrobial activity against Escherichia coli ATCC 25922 after 16 hrs; type: functional; details: ATCC 25922, 16 h
[5] = system: Staphylococcus aureus; test: Antimicrobial activity against methicillin resistant Staphylococcus aureus ATCC 33591 after 16 hrs; type: functional; details: ATCC 33591, 16 h
[6] = system: Staphylococcus epidermidis; test: Antimicrobial activity against methicillin resistant Staphylococcus epidermidis RP62A after 16 hrs; type: functional
[7] = Retention time of compound by HPLC analysis
[8] = Selectivity index, ratio of HC50 for mouse RBC to MIC for methicillin resistance Staphylococcus aureus ATCC 33591

| Structure (SMILES) | MIC [1] | MIC [2] | MIC [3] | MIC [4] | MIC [5] | MIC [6] | Retention time [7] | Selectivity Index [8] |
| --- | --- | --- | --- | --- | --- | --- | --- | --- |
| CCCCCCCCCCCCCCCC(=O)N[C@@H](CCCCN)CN1CC(=O)N(c2ccc(OC)cc2)C1=O | > 50 µg/mL | > 50 µg/mL | 6.25 µg/mL (≈ 11.2 µM) | > 50 µg/mL | 3.12 µg/mL (≈ 5.58 µM) | 6.25 µg/mL (≈ 11.2 µM) |  |  |
| CCCCCCCCCCCCCC(=O)N[C@@H](CCCCN)CN1CC(=O)N(c2ccc(OC)cc2)C1=O | > 50 µg/mL | 25 µg/mL (≈ 47.1 µM) | 6.25 µg/mL (≈ 11.8 µM) | 6.25 µg/mL (≈ 11.8 µM) | 6.25 µg/mL (≈ 11.8 µM) | 6.25 µg/mL (≈ 11.8 µM) |  |  |
| CCCCCCCCCC(=O)N[C@@H](CCCCN)CN1CC(=O)N(CCCC)C1=O | > 50 µg/mL | > 50 µg/mL | > 50 µg/mL | > 50 µg/mL | > 50 µg/mL | > 50 µg/mL | < 26 min |  |
| CCCCCCCCCCCCCCCC(=O)N[C@@H](CCCCN)CN1CC(=O)N(c2cccc(Cl)c2)C1=O | > 50 µg/mL | > 50 µg/mL | 12.5 µg/mL (≈ 22.2 µM) | > 50 µg/mL | 12.5 µg/mL (≈ 22.2 µM) | 12.5 µg/mL (≈ 22.2 µM) |  |  |
| CCCCCCCCCCCCCCCC(=O)N[C@@H](CCCCN)CN1CC(=O)N(CCCC)C1=O | > 50 µg/mL | > 50 µg/mL | 6.25 µg/mL (≈ 12.3 µM) | > 50 µg/mL | 6.25 µg/mL (≈ 12.3 µM) | 6.25 µg/mL (≈ 12.3 µM) |  |  |
| CCCCCCCCCCCCCC(=O)N[C@@H](CCCCN)CN1CC(=O)N(CC)C1=O | 12.5 µg/mL (≈ 27.6 µM) | 6.25 µg/mL (≈ 13.8 µM) | 6.25 µg/mL (≈ 13.8 µM) | 3.12 µg/mL (≈ 6.89 µM) | 6.25 µg/mL (≈ 13.8 µM) | 6.25 µg/mL (≈ 13.8 µM) |  | 14.4 |
| CCCCCCCCCC(=O)N[C@@H](CCCCN)CN1CC(=O)N(c2cccc(Cl)c2)C1=O | 6.25 µg/mL (≈ 13 µM) | 6.25 µg/mL (≈ 13 µM) | 12.5 µg/mL (≈ 26.1 µM) | 6.25 µg/mL (≈ 13 µM) | 6.25 µg/mL (≈ 13 µM) | 6.25 µg/mL (≈ 13 µM) |  | 16 |
| CCCCCCCCCCCCCC(=O)N[C@@H](CCCCN)CN1CC(=O)N(c2cccc(Cl)c2)C1=O | > 50 µg/mL | > 50 µg/mL | 12.5 µg/mL (≈ 23.4 µM) | > 50 µg/mL | 12.5 µg/mL (≈ 23.4 µM) | 12.5 µg/mL (≈ 23.4 µM) |  |  |
| CCCCCCCCCCCCCCCC(=O)N[C@@H](CCCCN)CN1CC(=O)N(CC)C1=O | > 50 µg/mL | 12.5 µg/mL (≈ 26 µM) | 3.12 µg/mL (≈ 6.49 µM) | 3.12 µg/mL (≈ 6.49 µM) | 3.12 µg/mL (≈ 6.49 µM) | 3.12 µg/mL (≈ 6.49 µM) | < 26 min |  |
| CCCCCCCCCCCCCCCC(=O)N[C@@H](CCCCN)CN1CC(=O)N(C23CC4CC(CC(C4)C2)C3)C1=O | > 50 µg/mL | > 50 µg/mL | > 50 µg/mL | > 50 µg/mL | > 50 µg/mL | > 50 µg/mL |  |  |
| CCCCCCCCCCCC(=O)N[C@@H](CCCCN)CN1CC(=O)N(C23CC4CC(CC(C4)C2)C3)C1=O | > 50 µg/mL | > 50 µg/mL | 6.25 µg/mL (≈ 11.8 µM) | 12.5 µg/mL (≈ 23.5 µM) | 6.25 µg/mL (≈ 11.8 µM) | 6.25 µg/mL (≈ 11.8 µM) |  |  |
| CCCCCCCCCCCCCC(=O)N[C@@H](CCCCN)CN1CC(=O)N(C23CC4CC(CC(C4)C2)C3)C1=O | > 50 µg/mL | > 50 µg/mL | 6.25 µg/mL (≈ 11.2 µM) | > 50 µg/mL |  | 3.15 µg/mL (≈ 5.64 µM) |  |  |
| CCCCCCCCCCCCCCCC(=O)N[C@@H](CCCCN)CN1CC(=O)N(C2CCCCC2)C1=O | > 50 µg/mL | > 50 µg/mL | 25 µg/mL (≈ 46.7 µM) | > 50 µg/mL | 3.12 µg/mL (≈ 5.83 µM) | 25 µg/mL (≈ 46.7 µM) |  |  |
